The source of these data is US6214816A, “Heterocyclic compounds” (Novo Nordisk A/S, priority 1998, dated 2001).

Structures can show the parent of a compound that is named as a salt.

The assay deals with histamine induced paw oedema. Put plainly: Histamine induced paw oedema. Particulars: ip, intraperitoneally 15 minutes before the anaesthetics, paw swelling 20 minutes after histamine, rat. The format is in vivo, rat (male Sprague-Dawley). Here is the method:
Compounds of formula I may be used to treat all painful, hyperalgesic and/or inflammatory conditions in which C-fibres play a pathophysiological role by eliciting neurogenic pain or inflammation, i.e.: The rat histamine paw oedema test was performed essentially as described by Amann et al. (Europ. J. Pharmacol. 279, 227-231, 1995). In brief 250-300 g male Sprague-Dawley rats were anaesthetized with pentobarbital sodium, and placed on a 32 degree Celsius heated table. Ten minutes later histamine (50 micoliter, 3 mg/ml) was injected in the right hind paw and 20 minutes hereafter the paw swelling was determined by water plethysmography (Ugo Basile). Test compounds were administered intraperitoneally at 15 minutes before the anaesthetics.

What is called inhibition is the percentage by which the read-out fell short of the control. Low readings indicate a response near the control, high ones a response far below the control. `O=C(O)CCN1CCC(CN2c3ccccc3CCc3ccccc32)C1` (stereo not shown) [Example 1, 3-(3-(10,11-Dihydro-5H-dibenzo[b,f]azepin-5-ylmethyl)-pyrrolidin-1-yl)-propionic acid hydrochloride] registered an inhibition at 1 mg/kg of 56%.
